In patent US20260241012A1, “1,8-NAPHTHYRIDIN-2-ONE HETEROBIFUNCTIONAL BCL6 DEGRADERS” (Treeline Biosciences, Inc., priority 2022, published 2026):

Biological target: T1, N-terminal HiBiT tagged BCL6 (Homo sapiens, UniProt P41182)
T1 construct: expressed in transfected cells; host or cells: HT1080 (ATCC CCL-121), stably transduced with lentivirus pLV-UBC-N-HiBiT-BCL6-PGK-puro
Assay: HiBiT based degradation assay
Assay type: cell-based
Conditions: HT1080 cells expressing N-terminal HiBiT tagged BCL6, 5 hours of incubation; for Ymin (5 hr): BCL6 degradation normalized with DMSO control; for DC50: four-parameter logistic model, read-out: EC50 (5 hr)
Method in brief: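 Degradation measured by luminescence from the Nano-Glo HiBiT lytic reagent (15 min, room temperature), normalized to DMSO controls and fitted to a four-parameter curve.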

Ymin (5 hr)	DC50	Structure (SMILES)
++++ (Ymin < 30%)	10 to 100 nM	CNC(=O)COc1cc2cc(Nc3nc(N4CCC(CN5CCN(c6cccc7c(C8CCC(=O)NC8=O)nn(C)c67)C[C@H]5CO)CC4)ncc3Cl)cnc2n(C(C)C)c1=O (stereo partly drawn) [Compound 231a, 2-[[6-[[5-chloro-2-[4-[[(2S)-4-[3-(2,6-dioxo-3-piperidyl)-1-methyl-indazol-7-yl]-2-(hydroxymethyl)piperazin-1-yl]methyl]-1-piperidyl]pyrimidin-4-yl]amino]-1-isopropyl-2-oxo-1,8-naphthyridin-3-yl]oxy]-N-methyl-acetamide]
+++ (30% ≤ Ymin < 50%)	10 to 100 nM	CNC(=O)COc1cc2cc(Nc3nc(N4CC5(CCC(Oc6cccc7c(C8CCC(=O)NC8=O)nn(C)c67)CC5)C4)ncc3Cl)cnc2n(C(C)C)c1=O (stereo not shown) [Compound 181, 2-[[6-[[5-chloro-2-[7-[3-(2,6-dioxo-3-piperidyl)-1-methyl-indazol-7-yl]oxy-2-azaspiro[3.5]nonan-2-yl]pyrimidin-4-yl]amino]-1-isopropyl-2-oxo-1,8-naphthyridin-3-yl]oxy]-N-methyl-acetamide]
+++ (30% ≤ Ymin < 50%)	< 10 nM	CNC(=O)COc1cc2cc(Nc3nc(N4CCC(CN5CCN(c6ccc7c(C8CCC(=O)NC8=O)nn(C)c7c6)CC5)CC4)ncc3Cl)cnc2n(C(C)C)c1=O (stereo not shown) [Compound 214, 2-((6-((5-chloro-2-(4-((4-(3-(2,6-dioxopiperidin-3-yl)-1-methyl-1H-indazol-6-yl)piperazin-1-yl)methyl)piperidin-1-yl)pyrimidin-4-yl)amino)-1-isopropyl-2-oxo-1,2-dihydro-1,8-naphthyridin-3-yl)oxy)-N-methylacetamide]
+++ (30% ≤ Ymin < 50%)	< 10 nM	CNC(=O)COc1cc2cc(Nc3nc(N4CC5(CCC(Oc6cccc7c(C8CCC(=O)NC8=O)nn(C)c67)CC5)C4)ncc3Cl)cnc2n(C)c1=O (stereo not shown) [Compound 142, 2-((6-((5-chloro-2-(7-((3-(2,6-dioxopiperidin-3-yl)-1-methyl-1H-indazol-7-yl)oxy)-2-azaspiro[3.5]nonan-2-yl)pyrimidin-4-yl)amino)-1-methyl-2-oxo-1,2-dihydro-1,8-naphthyridin-3-yl)oxy)-N-methylacetamide]
+++ (30% ≤ Ymin < 50%)	< 10 nM	CNC(=O)COc1cc2cc(Nc3nc(N4CCC5(CC4)CN(CC4CCN(c6ccc7c(C8CCC(=O)NC8=O)nn(C)c7c6)CC4)C5)ncc3Cl)cnc2n(C)c1=O (stereo not shown) [Compound 121, 2-((6-((5-chloro-2-(2-((1-(3-(2,6-dioxopiperidin-3-yl)-1-methyl-1H-indazol-6-yl)piperidin-4-yl)methyl)-2,7-diazaspiro[3.5]nonan-7-yl)pyrimidin-4-yl)amino)-1-methyl-2-oxo-1,2-dihydro-1,8-naphthyridin-3-yl)oxy)-N-methylacetamide]
++++ (Ymin < 30%)	10 to 100 nM	CNC(=O)COc1cc2cc(Nc3nc(N4CCC(CN5CCN(c6cccc7c(C8CCC(=O)NC8=O)nn(C)c67)C[C@@H]5C)CC4)ncc3Cl)cnc2n(C(C)C)c1=O (stereo partly drawn) [Compound 192a, 2-[[6-[[5-chloro-2-[4-[[(2S)-4-[3-(2,6-dioxo-3-piperidyl)-1-methyl-indazol-7-yl]-2-methyl-piperazin-1-yl]methyl]-1-piperidyl]pyrimidin-4-yl]amino]-1-isopropyl-2-oxo-1,8-naphthyridin-3-yl]oxy]-N-methyl-acetamide]
+++ (30% ≤ Ymin < 50%)	10 to 100 nM	CNC(=O)COc1cc2cc(Nc3nc(N4CCC(CN5CCN(c6cccc7c(C8CCC(=O)NC8=O)nn(C)c67)CC5(C)C)CC4)ncc3Cl)cnc2n(C(C)C)c1=O (stereo not shown) [Compound 200, 2-[[6-[[5-chloro-2-[4-[[4-[3-(2,6-dioxo-3-piperidyl)-1-methyl-indazol-7-yl]-2,2-dimethyl-piperazin-1-yl]methyl]-1-piperidyl]pyrimidin-4-yl]amino]-1-isopropyl-2-oxo-1,8-naphthyridin-3-yl]oxy]-N-methyl-acetamide]
++++ (Ymin < 30%)	10 to 100 nM	CNC(=O)COc1cc2cc(Nc3nc(N4CCN(CC5CCN(c6cccc7c(C8CCC(=O)NC8=O)nn(C)c67)CC5)[C@@H](C(C)(C)O)C4)ncc3Cl)cnc2n(C(C)C)c1=O (stereo partly shown) [Compound 208b]
++++ (Ymin < 30%)	< 10 nM	CNC(=O)COc1cc2cc(Nc3nc(N4CC5(CCC(Nc6cccc7c(C8CCC(=O)NC8=O)nn(C)c67)CC5)C4)ncc3Cl)cnc2n(C)c1=O (stereo not shown) [Compound 137, 2-((6-((5-chloro-2-(7-((3-(2,6-dioxopiperidin-3-yl)-1-methyl-1H-indazol-7-yl)amino)-2-azaspiro[3.5]nonan-2-yl)pyrimidin-4-yl)amino)-1-methyl-2-oxo-1,2-dihydro-1,8-naphthyridin-3-yl)oxy)-N-methylacetamide]
+++ (30% ≤ Ymin < 50%)	< 10 nM	CNC(=O)COc1cc2cc(Nc3nc(N4CC[C@H](CN5CCN(c6ccc7c(C8CCC(=O)NC8=O)nn(C)c7c6)CC5)[C@@H](C)C4)ncc3Cl)cnc2n(C(C)C)c1=O (stereo partly drawn) [Compound 176b, 2-((6-((5-chloro-2-((3R,4S)-4-((4-(3-(2,6-dioxopiperidin-3-yl)-1-methyl-1H-indazol-6-yl)piperazin-1-yl)methyl)-3-methylpiperidin-1-yl)pyrimidin-4-yl)amino)-1-isopropyl-2-oxo-1,2-dihydro-1,8-naphthyridin-3-yl)oxy)-N-methylacetamide]
+++ (30% ≤ Ymin < 50%)	< 10 nM	CNC(=O)COc1cc2cc(Nc3nc(N4CCN(CCC5CCN(c6ccc7c(C8CCC(=O)NC8=O)nn(C)c7c6)CC5)CC4)ncc3Cl)cnc2n(C)c1=O (stereo not shown) [Compound 114, 2-((6-((5-chloro-2-(4-(2-(1-(3-(2,6-dioxopiperidin-3-yl)-1-methyl-1H-indazol-6-yl)piperidin-4-yl)ethyl)piperazin-1-yl)pyrimidin-4-yl)amino)-1-methyl-2-oxo-1,2-dihydro-1,8-naphthyridin-3-yl)oxy)-N-methylacetamide]
++++ (Ymin < 30%)	10 to 100 nM	CNC(=O)COc1cc2cc(Nc3nc(N4CCN(CC5CCN(c6cccc7c(C8CCC(=O)NC8=O)nn(C)c67)CC5)CC4)ncc3Cl)cnc2n(CC(F)(F)F)c1=O (stereo not shown) [Compound 170, 2-[[6-[[5-chloro-2-[4-[[1-[3-(2,6-dioxo-3-piperidyl)-1-methyl-indazol-7-yl]-4-piperidyl]methyl]piperazin-1-yl]pyrimidin-4-yl]amino]-2-oxo-1-(2,2,2-trifluoroethyl)-1,8-naphthyridin-3-yl]oxy]-N-methyl-acetamide]
++++ (Ymin < 30%)	10 to 100 nM	CNC(=O)COc1cc2cc(Nc3nc(N4CCN(CC5CCN(c6cccc7c(C8CCC(=O)NC8=O)nn(C)c67)CC5)[C@H](CO)C4)ncc3Cl)cnc2n(C(C)C)c1=O (stereo partly drawn) [Compound 146a, 2-((6-((5-chloro-2-((3S)-4-((1-(3-(2,6-dioxopiperidin-3-yl)-1-methyl-1H-indazol-7-yl)piperidin-4-yl)methyl)-3-(hydroxymethyl)piperazin-1-yl)pyrimidin-4-yl)amino)-1-isopropyl-2-oxo-1,2-dihydro-1,8-naphthyridin-3-yl)oxy)-N-methylacetamide]
+++ (30% ≤ Ymin < 50%)	< 10 nM	CNC(=O)COc1cc2cc(Nc3nc(N4CCN(C(=O)N5CCC(c6cccc7c(C8CCC(=O)NC8=O)nn(C)c67)CC5)CC4)ncc3Cl)cnc2n(C(C)C)c1=O (stereo not shown) [Compound 224, 2-[[6-[[5-chloro-2-[4-[4-[3-(2,6-dioxo-3-piperidyl)-1-methyl-indazol-7-yl]piperidine-1-carbonyl]piperazin-1-yl]pyrimidin-4-yl]amino]-1-isopropyl-2-oxo-1,8-naphthyridin-3-yl]oxy]-N-methyl-acetamide]
++++ (Ymin < 30%)	10 to 100 nM	CNC(=O)COc1cc2cc(Nc3nc(N4CC[C@H](CN5CCN(c6cccc7c(C8CCC(=O)NC8=O)nn(C)c67)CC5)[C@@H](F)C4)ncc3Cl)cnc2n(C(C)C)c1=O (relative stereo) [Compound 238b, 2-((6-((5-chloro-2-((3R,4R)-4-((4-(3-(2,6-dioxopiperidin-3-yl)-1-methyl-1H-indazol-7-yl)piperazin-1-yl)methyl)-3-fluoropiperidin-1-yl)pyrimidin-4-yl)amino)-1-isopropyl-2-oxo-1,2-dihydro-1,8-naphthyridin-3-yl)oxy)-N-methylacetamide]
++++ (Ymin < 30%)	< 10 nM	CNC(=O)COc1cc2cc(Nc3nc(N4CC5(CN(CC6CCN(c7ccc8c(C9CCC(=O)NC9=O)nn(C)c8c7)CC6)C5)C4)ncc3Cl)cnc2n(C)c1=O (stereo not shown) [Compound 118, 2-((6-((5-chloro-2-(6-((1-(3-(2,6-dioxopiperidin-3-yl)-1-methyl-1H-indazol-6-yl)piperidin-4-yl)methyl)-2,6-diazaspiro[3.3]heptan-2-yl)pyrimidin-4-yl)amino)-1-methyl-2-oxo-1,2-dihydro-1,8-naphthyridin-3-yl)oxy)-N-methylacetamide]

Structure (SMILES)	Ymin (5 hr)	DC50
CNC(=O)COc1cc2cc(Nc3nc(N4CCC(CN5CC6CC(C5)N6c5cccc6c(C7CCC(=O)NC7=O)nn(C)c56)CC4)ncc3Cl)cnc2n(C(C)C)c1=O (stereo not shown) [Compound 187, 2-[[6-[[5-chloro-2-[4-[[6-[3-(2,6-dioxo-3-piperidyl)-1-methyl-indazol-7-yl]-3,6-diazabicyclo[3.1.1]heptan-3-yl]methyl]-1-piperidyl]pyrimidin-4-yl]amino]-1-isopropyl-2-oxo-1,8-naphthyridin-3-yl]oxy]-N-methyl-acetamide]	+++ (30% ≤ Ymin < 50%)	10 to 100 nM
